{
  "source": "paper PMC314469",
  "about": "“Protein Interaction Networks by Proteome Peptide Scanning” (PLoS Biology, 2004)",
  "system": "Myo5 SH3 domain",
  "experiment": "SPOT analysis of cellulose-bound peptides (WISE), Myo5 SH3 domain (Dataset S4)",
  "format": "binding, Saccharomyces cerevisiae",
  "details": "SPOT analysis of cellulose-bound peptides probed with Myo5 SH3 domain; normalized value",
  "data": [
    {"sequence": "SLTSLPPPPPPQFS", "values": [
      {"measurement": "The normalized value in BLU units (SPOT analysis, Myo5 SH3)", "result": 7261.1, "unit": "BLU"}
    ]}
  ]
}
